Literature values, collected in US9149490B2, “Acne treatment composition and methods for using” (Skinvisible Pharmaceuticals, Inc., priority 2006, dated 2015).

Settings: in vivo

Question: Which dermal toxicity does the source give for “Poly(vinylpyrrolidone/1-eicosene) [PVPE]” here?
Answer: Its dermal toxicity is “no demonstrable dermal toxicity”.

Question: Which dermal toxicity does the source give for “Poly(vinylpyrrolidone/1-hexadecene) [PVPH]” here?
Answer: Its dermal toxicity is “no demonstrable dermal toxicity”.
